Columns and labels:
[1] = target: T1, Alpha-2A adrenergic receptor (Homo sapiens, UniProt P08913)
T1 sequence (P08913 whole entry): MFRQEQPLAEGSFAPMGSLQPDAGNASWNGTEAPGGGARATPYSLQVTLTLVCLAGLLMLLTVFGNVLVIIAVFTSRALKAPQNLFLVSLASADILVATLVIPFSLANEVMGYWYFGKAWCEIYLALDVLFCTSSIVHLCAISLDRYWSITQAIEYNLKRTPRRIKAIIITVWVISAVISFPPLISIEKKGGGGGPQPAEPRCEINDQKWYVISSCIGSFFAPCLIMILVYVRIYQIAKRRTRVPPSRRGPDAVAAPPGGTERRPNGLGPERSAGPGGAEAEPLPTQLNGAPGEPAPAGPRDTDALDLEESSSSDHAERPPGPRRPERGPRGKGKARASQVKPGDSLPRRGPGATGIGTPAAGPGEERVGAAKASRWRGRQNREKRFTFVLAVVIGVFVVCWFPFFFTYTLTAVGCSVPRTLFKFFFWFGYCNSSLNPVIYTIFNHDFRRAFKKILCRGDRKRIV

[2] = target: D(1A) dopamine receptor (Homo sapiens, UniProt P21728)
[3] = target: Beta-1 adrenergic receptor (Homo sapiens, UniProt P08588); assay type: functional, cell-based
[4] = target: Voltage-dependent L-type calcium channel subunit alpha-1C (Homo sapiens, UniProt Q13936); assay type: functional, cell-based
[5] = target: Hydroxycarboxylic acid receptor 2 (Homo sapiens, UniProt Q8TDS4)
[6] = target: Histamine H1 receptor (Homo sapiens, UniProt P35367); assay type: functional, cell-based
[7] = target: T2, Muscarinic acetylcholine receptor M2 (Homo sapiens, UniProt P08172)
T2 sequence (P08172 whole entry): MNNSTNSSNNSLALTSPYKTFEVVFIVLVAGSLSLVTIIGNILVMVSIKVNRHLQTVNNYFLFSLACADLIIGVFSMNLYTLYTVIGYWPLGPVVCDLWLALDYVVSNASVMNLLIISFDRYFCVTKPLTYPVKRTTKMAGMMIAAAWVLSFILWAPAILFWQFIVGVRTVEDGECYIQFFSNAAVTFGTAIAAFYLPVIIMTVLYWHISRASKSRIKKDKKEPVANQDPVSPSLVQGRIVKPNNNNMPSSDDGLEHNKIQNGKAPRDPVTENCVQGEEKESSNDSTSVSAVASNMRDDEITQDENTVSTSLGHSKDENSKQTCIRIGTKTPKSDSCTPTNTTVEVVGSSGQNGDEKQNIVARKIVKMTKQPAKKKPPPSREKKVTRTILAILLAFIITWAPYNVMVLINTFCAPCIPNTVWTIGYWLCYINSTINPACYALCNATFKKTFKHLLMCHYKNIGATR

[8] = target: 5-hydroxytryptamine receptor 2A (Homo sapiens, UniProt P28223)
[9] = target: 5-hydroxytryptamine receptor 7 (Homo sapiens, UniProt P34969)
[10] = target: T3, Alpha-1A adrenergic receptor (Homo sapiens, UniProt P35348)
T3 sequence (P35348 whole entry): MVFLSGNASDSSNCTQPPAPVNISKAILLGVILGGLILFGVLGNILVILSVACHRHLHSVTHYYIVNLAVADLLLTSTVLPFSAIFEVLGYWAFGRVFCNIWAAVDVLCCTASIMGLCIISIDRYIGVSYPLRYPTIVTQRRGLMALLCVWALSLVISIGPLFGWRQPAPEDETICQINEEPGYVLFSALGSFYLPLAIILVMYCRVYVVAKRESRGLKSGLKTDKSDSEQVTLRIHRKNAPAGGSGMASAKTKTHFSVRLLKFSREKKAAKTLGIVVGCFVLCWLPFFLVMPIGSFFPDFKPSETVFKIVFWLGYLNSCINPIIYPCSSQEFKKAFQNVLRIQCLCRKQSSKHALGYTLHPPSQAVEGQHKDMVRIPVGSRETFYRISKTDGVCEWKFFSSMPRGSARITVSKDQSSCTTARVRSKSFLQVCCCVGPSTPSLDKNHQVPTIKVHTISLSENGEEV

[11] = target: 5-hydroxytryptamine receptor 6 (Homo sapiens, UniProt P50406)
[12] = target: Gamma-aminobutyric acid type B receptor subunit 1 (Homo sapiens, UniProt Q9UBS5)
[13] = target: T4, Muscarinic acetylcholine receptor M5 (Homo sapiens, UniProt P08912)
T4 sequence (P08912 whole entry): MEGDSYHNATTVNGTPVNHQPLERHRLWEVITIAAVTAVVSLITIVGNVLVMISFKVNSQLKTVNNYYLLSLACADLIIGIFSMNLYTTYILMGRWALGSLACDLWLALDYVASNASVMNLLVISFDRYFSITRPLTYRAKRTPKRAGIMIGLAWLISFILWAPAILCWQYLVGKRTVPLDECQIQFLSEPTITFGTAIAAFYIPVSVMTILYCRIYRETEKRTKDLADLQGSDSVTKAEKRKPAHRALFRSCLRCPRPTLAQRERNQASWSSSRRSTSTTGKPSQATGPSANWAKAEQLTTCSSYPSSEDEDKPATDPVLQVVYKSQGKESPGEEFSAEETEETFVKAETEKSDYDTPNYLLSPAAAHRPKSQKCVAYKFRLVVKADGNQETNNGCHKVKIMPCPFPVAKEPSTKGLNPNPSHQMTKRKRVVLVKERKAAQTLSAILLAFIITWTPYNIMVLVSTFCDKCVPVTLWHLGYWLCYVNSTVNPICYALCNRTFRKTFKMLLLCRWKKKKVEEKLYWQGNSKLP

[14] = target: T5, Peroxisome proliferator-activated receptor alpha (Homo sapiens, UniProt Q07869); assay type: functional
T5 sequence (Q07869 whole entry): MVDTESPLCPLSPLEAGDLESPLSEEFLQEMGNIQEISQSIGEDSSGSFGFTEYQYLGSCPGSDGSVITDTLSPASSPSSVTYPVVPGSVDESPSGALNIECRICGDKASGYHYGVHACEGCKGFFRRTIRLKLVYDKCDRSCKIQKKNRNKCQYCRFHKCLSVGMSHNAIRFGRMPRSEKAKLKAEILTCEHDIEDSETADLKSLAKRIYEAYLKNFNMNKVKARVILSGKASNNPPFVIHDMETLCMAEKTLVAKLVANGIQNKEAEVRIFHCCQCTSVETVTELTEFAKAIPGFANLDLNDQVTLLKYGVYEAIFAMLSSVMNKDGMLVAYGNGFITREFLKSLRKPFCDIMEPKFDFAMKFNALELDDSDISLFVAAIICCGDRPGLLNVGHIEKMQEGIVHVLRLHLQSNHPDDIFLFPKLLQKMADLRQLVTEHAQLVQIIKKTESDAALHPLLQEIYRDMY
Note: assay procedure not described here.

Sequence of 5-hydroxytryptamine receptor 2A (P28223 whole entry): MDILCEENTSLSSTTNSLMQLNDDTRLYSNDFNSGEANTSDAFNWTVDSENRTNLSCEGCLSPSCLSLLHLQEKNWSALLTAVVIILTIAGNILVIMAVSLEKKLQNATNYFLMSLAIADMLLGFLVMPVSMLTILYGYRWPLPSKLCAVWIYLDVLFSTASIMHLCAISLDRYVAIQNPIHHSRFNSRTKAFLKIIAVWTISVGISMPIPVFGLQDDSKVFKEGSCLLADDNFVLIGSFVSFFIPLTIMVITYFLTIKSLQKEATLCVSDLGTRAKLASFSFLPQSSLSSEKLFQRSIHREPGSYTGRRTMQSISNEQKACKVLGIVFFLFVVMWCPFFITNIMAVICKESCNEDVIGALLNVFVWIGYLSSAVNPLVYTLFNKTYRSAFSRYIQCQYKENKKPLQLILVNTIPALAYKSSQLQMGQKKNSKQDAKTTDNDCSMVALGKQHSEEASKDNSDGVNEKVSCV
Sequence of 5-hydroxytryptamine receptor 6 (P50406 whole entry): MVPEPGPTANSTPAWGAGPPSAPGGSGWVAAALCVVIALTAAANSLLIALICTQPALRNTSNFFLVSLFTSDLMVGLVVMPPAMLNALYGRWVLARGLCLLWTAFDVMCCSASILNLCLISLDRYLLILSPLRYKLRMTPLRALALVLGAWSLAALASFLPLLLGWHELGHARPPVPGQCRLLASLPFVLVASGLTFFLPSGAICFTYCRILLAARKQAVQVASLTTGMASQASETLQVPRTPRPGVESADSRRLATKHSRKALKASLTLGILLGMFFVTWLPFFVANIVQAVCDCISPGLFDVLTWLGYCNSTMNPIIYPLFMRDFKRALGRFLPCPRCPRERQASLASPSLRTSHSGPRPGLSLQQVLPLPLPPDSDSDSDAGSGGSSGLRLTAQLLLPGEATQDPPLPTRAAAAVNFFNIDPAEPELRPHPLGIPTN
Sequence of Beta-1 adrenergic receptor (P08588 whole entry): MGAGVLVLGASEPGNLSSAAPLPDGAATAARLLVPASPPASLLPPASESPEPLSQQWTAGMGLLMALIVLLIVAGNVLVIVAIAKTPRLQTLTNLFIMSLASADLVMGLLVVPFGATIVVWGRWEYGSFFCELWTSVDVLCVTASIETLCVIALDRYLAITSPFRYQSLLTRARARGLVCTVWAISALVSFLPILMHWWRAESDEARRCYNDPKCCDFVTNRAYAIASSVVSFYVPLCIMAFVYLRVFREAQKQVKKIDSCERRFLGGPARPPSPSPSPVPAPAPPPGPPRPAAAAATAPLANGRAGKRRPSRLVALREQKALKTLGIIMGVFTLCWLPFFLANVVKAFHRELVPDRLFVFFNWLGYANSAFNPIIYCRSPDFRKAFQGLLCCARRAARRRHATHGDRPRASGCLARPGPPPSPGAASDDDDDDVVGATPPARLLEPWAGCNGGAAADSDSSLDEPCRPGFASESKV
Sequence of D(1A) dopamine receptor (P21728 whole entry): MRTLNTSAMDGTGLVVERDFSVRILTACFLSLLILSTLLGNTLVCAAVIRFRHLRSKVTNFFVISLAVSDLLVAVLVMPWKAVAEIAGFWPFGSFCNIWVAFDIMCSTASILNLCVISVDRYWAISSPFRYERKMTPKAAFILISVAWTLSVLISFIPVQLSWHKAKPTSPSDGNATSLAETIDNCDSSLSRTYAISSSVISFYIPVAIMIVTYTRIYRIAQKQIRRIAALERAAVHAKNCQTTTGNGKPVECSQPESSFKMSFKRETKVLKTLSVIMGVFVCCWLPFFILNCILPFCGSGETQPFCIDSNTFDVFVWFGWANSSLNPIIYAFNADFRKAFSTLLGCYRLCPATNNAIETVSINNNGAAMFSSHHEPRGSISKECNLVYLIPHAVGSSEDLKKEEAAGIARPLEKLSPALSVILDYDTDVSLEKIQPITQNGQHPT
Sequence of Hydroxycarboxylic acid receptor 2 (Q8TDS4 whole entry): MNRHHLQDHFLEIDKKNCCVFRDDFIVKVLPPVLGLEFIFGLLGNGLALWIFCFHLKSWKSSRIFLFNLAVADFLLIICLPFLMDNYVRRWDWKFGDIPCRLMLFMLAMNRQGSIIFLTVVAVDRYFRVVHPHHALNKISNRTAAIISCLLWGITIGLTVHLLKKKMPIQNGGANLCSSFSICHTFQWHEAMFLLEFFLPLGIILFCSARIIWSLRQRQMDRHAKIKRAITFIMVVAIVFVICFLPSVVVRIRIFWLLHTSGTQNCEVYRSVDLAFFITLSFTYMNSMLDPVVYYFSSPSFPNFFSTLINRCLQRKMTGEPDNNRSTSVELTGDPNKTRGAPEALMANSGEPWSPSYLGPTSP
Sequence of Gamma-aminobutyric acid type B receptor subunit 1 (Q9UBS5 whole entry): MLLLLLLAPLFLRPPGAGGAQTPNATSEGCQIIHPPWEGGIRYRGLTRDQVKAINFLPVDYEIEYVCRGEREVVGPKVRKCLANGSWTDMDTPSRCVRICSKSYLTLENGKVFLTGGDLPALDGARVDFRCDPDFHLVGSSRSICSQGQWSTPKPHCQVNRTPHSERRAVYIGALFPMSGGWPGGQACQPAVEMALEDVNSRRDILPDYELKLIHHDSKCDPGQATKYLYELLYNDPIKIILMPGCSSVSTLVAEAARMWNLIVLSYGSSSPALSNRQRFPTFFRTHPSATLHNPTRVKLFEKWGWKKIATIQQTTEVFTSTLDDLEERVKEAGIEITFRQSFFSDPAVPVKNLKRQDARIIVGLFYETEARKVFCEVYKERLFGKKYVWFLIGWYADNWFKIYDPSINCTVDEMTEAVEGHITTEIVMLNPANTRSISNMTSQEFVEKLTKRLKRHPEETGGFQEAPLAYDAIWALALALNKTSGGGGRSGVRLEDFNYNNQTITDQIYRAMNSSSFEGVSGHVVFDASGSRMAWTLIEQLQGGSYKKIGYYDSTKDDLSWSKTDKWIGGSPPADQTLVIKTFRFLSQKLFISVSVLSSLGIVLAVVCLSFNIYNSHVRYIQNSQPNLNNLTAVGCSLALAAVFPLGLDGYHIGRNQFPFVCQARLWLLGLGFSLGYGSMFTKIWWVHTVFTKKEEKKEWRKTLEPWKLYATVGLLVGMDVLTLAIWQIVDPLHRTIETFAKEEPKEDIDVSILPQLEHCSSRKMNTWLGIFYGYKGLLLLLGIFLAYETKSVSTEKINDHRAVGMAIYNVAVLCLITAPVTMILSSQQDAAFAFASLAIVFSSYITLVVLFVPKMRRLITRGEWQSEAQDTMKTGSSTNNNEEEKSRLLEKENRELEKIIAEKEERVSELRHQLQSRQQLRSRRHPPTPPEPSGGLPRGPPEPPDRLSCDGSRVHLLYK
Sequence of 5-hydroxytryptamine receptor 7 (P34969 whole entry): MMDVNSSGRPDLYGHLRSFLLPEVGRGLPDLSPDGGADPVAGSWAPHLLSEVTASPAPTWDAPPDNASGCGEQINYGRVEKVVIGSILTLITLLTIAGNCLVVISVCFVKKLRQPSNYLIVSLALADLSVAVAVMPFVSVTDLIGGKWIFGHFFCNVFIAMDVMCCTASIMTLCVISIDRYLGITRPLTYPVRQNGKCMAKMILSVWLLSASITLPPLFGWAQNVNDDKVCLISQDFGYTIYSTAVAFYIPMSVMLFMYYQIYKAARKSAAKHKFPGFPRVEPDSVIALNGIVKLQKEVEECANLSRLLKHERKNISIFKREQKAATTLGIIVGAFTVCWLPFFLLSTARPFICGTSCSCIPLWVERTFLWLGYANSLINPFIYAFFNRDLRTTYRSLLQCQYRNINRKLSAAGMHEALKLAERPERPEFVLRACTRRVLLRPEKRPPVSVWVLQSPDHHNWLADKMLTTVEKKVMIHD
Sequence of Histamine H1 receptor (P35367 whole entry): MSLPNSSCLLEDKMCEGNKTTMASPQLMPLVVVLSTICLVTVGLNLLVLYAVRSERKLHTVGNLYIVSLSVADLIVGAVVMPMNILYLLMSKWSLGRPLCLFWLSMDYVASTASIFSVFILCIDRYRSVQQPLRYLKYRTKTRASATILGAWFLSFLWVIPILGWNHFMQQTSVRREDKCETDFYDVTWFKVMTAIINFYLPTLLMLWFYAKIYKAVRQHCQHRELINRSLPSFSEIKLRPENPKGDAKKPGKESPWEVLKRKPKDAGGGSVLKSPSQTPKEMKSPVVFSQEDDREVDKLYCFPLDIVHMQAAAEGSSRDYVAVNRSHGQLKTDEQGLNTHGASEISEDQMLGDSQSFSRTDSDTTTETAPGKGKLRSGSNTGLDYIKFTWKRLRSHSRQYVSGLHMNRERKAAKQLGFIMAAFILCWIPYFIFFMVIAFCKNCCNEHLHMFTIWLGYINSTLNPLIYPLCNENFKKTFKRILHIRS

Compound `CN1CC2c3ccccc3Oc3ccc(Cl)cc3C2C1` (stereo unspecified) [ASENAPINE] has an AC50 [1] of 0.0137 µM and an AC50 [2] of 0.01 µM.

`CCN(CC)CCn1c(=O)c(Cc2ccc(OC)cc2)nc2ccccc21` [CAROVERINE] was tested, and the AC50 [3] was > 30 µM.

`CN(C)CCC=C1c2ccccc2CCc2ccccc21` [AMITRIPTYLINE] was tested, and the AC50 [4] was 32 µM and the AC50 [5] was > 10 µM.

With `CN(C)CCc1c[nH]c2ccc(CS(=O)(=O)N3CCCC3)cc12` [ALMOTRIPTAN] the AC50 [6] was > 30 µM.

With `CC#CC(=O)N1CCC[C@H]1c1nc(-c2ccc(C(=O)Nc3ccccn3)cc2)c2c(N)nccn12` [ACALABRUTINIB] the AC50 [7] was > 30 µM.

`C=CC1=C(C(=O)O)N2C(=O)[C@@H](NC(=O)/C(=N\O)c3csc(N)n3)[C@H]2SC1` was tested, and the AC50 [8] was > 10 µM.

In the case of `CC(=O)NC[C@H]1CN(c2ccc(N3CCOCC3)c(F)c2)C(=O)O1` [LINEZOLID], the AC50 [4] is reported as > 50 µM.

In the case of `C[C@]12CCC(=O)C=C1CC[C@H]1[C@@H]3CC[C@](O)(C(=O)CO)[C@@]3(C)C[C@H](O)[C@@]12F` [FLUDROCORTISONE], the AC50 [8] is reported as > 10 µM.

In the case of `CC(=O)Oc1ccccc1C(=O)O` [ASPIRIN], the AC50 [7] is reported as > 30 µM, the AC50 [1] is reported as > 30 µM and the AC50 [9] is reported as > 10 µM. The AC50 [2] was > 30 µM, the AC50 [10] was > 10 µM and the AC50 [11] was > 10 µM. For the same compound, the AC50 [12] was > 10 µM.

`N#Cc1ccnc(N2C(=O)CC[C@H]2C(=O)N(c2cncc(F)c2)[C@H](C(=O)NC2CC(F)(F)C2)c2ccccc2Cl)c1` [IVOSIDENIB] was tested, and the AC50 [4] was > 50 µM.

In the case of `CCOC(=O)Nc1ccc(NCc2ccc(F)cc2)nc1N` [FLUPIRTINE], the AC50 [3] is reported as > 30 µM.

`Cc1c(C)c2c(c(C)c1O)CCC(C)(COc1ccc(CC3SC(=O)NC3=O)cc1)O2` (stereo unspecified) [TROGLITAZONE] was tested, and the AC50 [12] was > 10 µM.

`CCOC(=O)[C@H](CCc1ccccc1)N[C@@H](C)C(=O)N1Cc2ccccc2C[C@H]1C(=O)O` was tested, and the AC50 [9] was > 10 µM, the AC50 [13] was > 10 µM and the AC50 [10] was > 10 µM. For the same compound, the AC50 [11] was > 10 µM and the AC50 [12] was > 10 µM.

`CC(C)/N=c1\cc2n(-c3ccc(Cl)cc3)c3ccccc3nc-2cc1Nc1ccc(Cl)cc1` [CLOFAZIMINE] was tested, and the AC50 [14] was > 30 µM and the AC50 [3] was > 30 µM.

With `Cn1cnc2c(F)c(Nc3ccc(Br)cc3F)c(C(=O)NOCCO)cc21` [BINIMETINIB] the AC50 [4] was > 50 µM.

`Nc1nnc(-c2cccc(Cl)c2Cl)c(N)n1` [LAMOTRIGINE] was tested, and the AC50 [10] was 11.1 µM, the AC50 [4] was > 50 µM and the AC50 [5] was > 10 µM.

`C#CCN(C)Cc1ccccc1` [PARGYLINE] was tested, and the AC50 [6] was > 30 µM.

`CN(C)CCCC1(c2ccc(F)cc2)OCc2cc(C#N)ccc21` (stereo unspecified) [CITALOPRAM] was tested, and the AC50 [5] was > 10 µM.

In the case of `NCC1(CC(=O)O)CCCCC1` [GABAPENTIN], the AC50 [7] is reported as > 30 µM, the AC50 [1] is reported as > 30 µM and the AC50 [9] is reported as > 10 µM. For the same compound, the AC50 [2] was > 30 µM, the AC50 [13] was > 10 µM and the AC50 [10] was > 10 µM. The AC50 [11] was > 10 µM and the AC50 [12] was > 10 µM.

With `CC(=O)SCC(Cc1ccccc1)C(=O)NCC(=O)OCc1ccccc1` (stereo unspecified) [RACECADOTRIL] the AC50 [14] was 29 µM and the AC50 [8] was > 10 µM.

`CCOc1ccccc1OCCN[C@H](C)Cc1ccc(OC)c(S(N)(=O)=O)c1` [TAMSULOSIN] showed an AC50 [1] of 0.79 µM and an AC50 [8] of 14.4 µM.

`OCCOCCN1CCN(C(c2ccccc2)c2ccc(Cl)cc2)CC1` (stereo unspecified) [HYDROXYZINE] showed an AC50 [6] of 0.45 µM, an AC50 [9] of 6.8 µM and an AC50 [10] of 0.546 µM. For the same compound, the AC50 [8] was 0.146 µM, the AC50 [11] was 2.2 µM and the AC50 [5] was > 10 µM.

— ChEMBL document CHEMBL5291721, “A preclinical secondary pharmacology resource illuminates target-adverse drug reaction associations of marketed drugs” (Nat Commun, 2023)
